Laboratory results reported in US11998595B2, “Telomerase polypeptide vaccine for treating cancer” (Ultimovacs AS, priority 2010, dated 2024).

Key:
[1] = system: CD8+ T cells (patient PBMCs); assay: Pentamer staining of hTERT-specific CD8+ T cells by flow cytometry; format: cell-based, human; settings: for peptide-specific CD8+ T lymphocytes detected by pentamer: HLA-B7+ lung cancer patient in complete remission after GV1001 vaccination, up to six years (FIG. 6); for patients with CTL responses shown by pentamer analysis: patients of Examples 1 to 8
CD4+ T-cell clones = assay: Peptide-specific T-cell clones from patients (HLA class II allele, peptide titration); format: cell-based, human
Excerpt: A value above 2 is considered as a positive response.
T-cell clones specific for all of the peptides of 15- or 30-amino acids shown in Table 1 have also been obtained from patients. […] This is important in order to be able to induce strong immune response in vivo where peptide concentrations are lower.
In addition, the 15- and 30-mer peptides listed in Table 1 show reactivity in nearly all patients tested, which means they are promiscuous with respect to the HLA class II alleles on which they are presented and that they are applicable to nearly the whole population without any need for HLA-screening (see Table 2).

T cells (patient PBMCs) = assay: T-cell proliferation assay (3H-thymidine) of patient PBMC/T cells with hTERT peptides or transfected DC; format: cell-based, human; settings: for response of clinical non-responders: GV1001-vaccinated; for immunological responses in clinical responders: patients responding / 7 clinical responders; for immunological responses in clinical non-responders: patients responding / 10 clinical non-responders; for proliferative T-cell response (detected or not): pancreas cancer patient vaccinated with DC/hTERT mRNA
Description: FIG. 1 is a bar graph summarising hTERT T-cell responses detected in pancreas cancer patient vaccinated with DC transfected with hTERT mRNA. In samples from various time points throughout a vaccination schedule, T-cell responses against 24 overlapping hTERT 15-mer peptides were detected. Proliferation in response to peptide-loaded PBMC was measured by ^3H-thymidine incorporation. A stimulation index of >2 is considered an immune response.
Peripheral blood mononuclear cells (PBMCs) were obtained prior to the four standard vaccinations, after 5 weeks and after 12 weeks. PBMCs were also obtained before each monthly booster vaccination. The PBMCs were isolated and frozen as previously described (Kyte et al, 2005). Thawed PBMCs were stimulated once in vitro with tDCs (not with mockDCs) and cultured and then tested in T cell proliferation assays (^3H Thymidine) as previously described (Kyte et al 2006). The T cells were tested in triplicates. Irradiated tDCs and mock-transfected DC controls (mockDCs) were used or PBMC with or without hTERT peptide as APCs. Negative controls with T cells only were included.
PBMCs from various time points were stimulated with an overlapping hTERT 15-mer peptide library or a 30-mer hTERT peptide, all from ProImmune and then tested in proliferation assays as above using irradiated PBMCs as APCs as described in (Bernhardt et al 2006).
T-cell responses to a hTERT peptide library (including the polypeptides from Table 1) were determined for T-cells from 5 patients in addition to the patients reported in Examples 1 and 2. The methods were the same as previously described in Example 1 or in Bernhardt et al 2006. In brief, PBMCs from various time points during vaccination were stimulated with the overlapping hTERT peptide library prior to testing for specific T-cell responses in proliferation assays.
The proliferative T-cell responses of each patient to a series of peptides were then determined as explained in Example 1. The results are tabulated in Table 5 and are shown graphically in FIG. 14 in which the peptide designations are referenced in Table 6 (the results for peptides 726 and GV1001 are shown only for comparison).
Four patients who were clinical non-responders following a lung cancer diagnosis and a GV1001 (SEQ ID NO. 10) peptide vaccination were studied. These patients were all stage IV lung cancer patients vaccinated with GV1001. […] The proliferative T-cell responses of each patient to a series of peptides were determined in the same manner as in Example 1, at one time point. The peak response of each patient during the study period to peptide GV1001 is also shown which confirms that each patient responded immunologically to GV1001 vaccination.
Six patients who were clinical non-responders following a melanoma cancer diagnosis and a GV1001 peptide (SEQ ID NO. 10) vaccination were studied. These patients were all stage IV melanoma patients and included in the same GV1001 vaccination trial as melanoma patients P7 and P8 who were long term survivors (see Example 6). […] Five of the patients also experienced progressive disease and one patient, designated Melanoma P3, experienced some stabilization of the disease but still had short survival. The proliferative T-cell responses of each patient to a series of peptides were determined in the same manner as in Example 1, at one time point. The peak response of each patient during the study period to peptide GV1001 is also shown which confirms that each patient responded immunologically to GV1001 vaccination.

pancreas cancer patient = assay: Clinical course of pancreas cancer patient; format: in vivo, human
Description: The vaccine consisted of 5×10^6 autologous monocyte-derived dendritic cells loaded with hTERT mRNA. The patient received 4 weekly injections followed by monthly booster injections.
Adverse events were recorded and graded according to the NCI-common toxicity criteria, as previously reported (Kyte et al, 2006 Gene therapy). […] Objective tumour response was assessed by clinical examination and CT scans prior to start of vaccination and every 3 months during the vaccination. The tumour response was classified according to the Response Evaluation Criteria in Solid Tumors (RECIST) (Therasse P et al, 2000).

[2] = system: T cells stimulated with peptide-loaded autologous EBV-LCL; assay: Intracellular cytokine staining of peptide-stimulated T cells; format: cell-based, human
[3] = HLA class II allele DR*04, 3 patients, malignant melanoma
[4] = four stage IV lung cancer patients
[5] = patient Colon ca P1, GV1001-vaccinated, clinical responder
[6] = patient Lung ca P1, GV1001-vaccinated, clinical non-responder, one time point
[7] = patient Lung ca P2, GV1001-vaccinated, clinical non-responder, one time point
[8] = patient Lung ca P3, GV1001-vaccinated, clinical non-responder, one time point
[9] = patient Lung ca P4, GV1001-vaccinated, clinical non-responder, one time point
[10] = patient Lung ca P5, GV1001-vaccinated, clinical responder
[11] = patient Lung ca P6, DC/hTERT mRNA-vaccinated, clinical responder, high background
[12] = patient Melanoma P1, GV1001-vaccinated, clinical non-responder, one time point
[13] = patient Melanoma P2, GV1001-vaccinated, clinical non-responder, one time point
[14] = patient Melanoma P3, GV1001-vaccinated, clinical non-responder, one time point
[15] = patient Melanoma P4, GV1001-vaccinated, clinical non-responder, one time point
[16] = patient Melanoma P5, GV1001-vaccinated, clinical non-responder, one time point
[17] = patient Melanoma P6, GV1001-vaccinated, clinical non-responder, one time point
[18] = patient Melanoma P7, GV1001-vaccinated, clinical responder
[19] = patient Melanoma P8, GV1001-vaccinated, clinical responder
[20] = patient Melanoma P9, non-vaccinated, spontaneous response
[21] = patient Pancreas ca P1, DC/hTERT mRNA-vaccinated, clinical responder, high background
[22] = GV1001 vaccinated lung cancer patient

Compound | response of clinical non-responders (T cells (patient PBMCs); [4]) | proliferative T-cell response (SI) (T cells (patient PBMCs); [5]) | proliferative T-cell response (SI) (T cells (patient PBMCs); [6]) | proliferative T-cell response (SI) (T cells (patient PBMCs); [7]) | proliferative T-cell response (SI) (T cells (patient PBMCs); [8]) | proliferative T-cell response (SI) (T cells (patient PBMCs); [9]) | proliferative T-cell response (SI) (T cells (patient PBMCs); [10]) | proliferative T-cell response (SI) (T cells (patient PBMCs); [11]) | proliferative T-cell response (SI) (T cells (patient PBMCs); [12]) | proliferative T-cell response (SI) (T cells (patient PBMCs); [13]) | proliferative T-cell response (SI) (T cells (patient PBMCs); [14]) | proliferative T-cell response (SI) (T cells (patient PBMCs); [15]) | proliferative T-cell response (SI) (T cells (patient PBMCs); [16]) | proliferative T-cell response (SI) (T cells (patient PBMCs); [17]) | proliferative T-cell response (SI) (T cells (patient PBMCs); [18]) | proliferative T-cell response (SI) (T cells (patient PBMCs); [19]) | proliferative T-cell response (SI) (T cells (patient PBMCs); [20]) | proliferative T-cell response (SI) (T cells (patient PBMCs); [21]) | response of clinical non-responders (T cells (patient PBMCs); six stage IV melanoma patients) | immunological responses in clinical responders (T cells (patient PBMCs)) | further results
RPGLLGASVL (listed as Homo sapiens) [SEQ ID NO. 25] | – | – | – | – | – | – | – | – | – | – | – | – | – | – | – | – | – | – | – | – | peptide-specific CD8+ T lymphocytes detected by pentamer [1]: second minor CTL population
RLTSRVKALFSVLNY (listed as Homo sapiens) [SEQ ID NO. 8] | very low or no response | 2.6 | 1.2 | 0.9 | 1.1 | 1.1 | 0.8 | 2.1 | 0.9 | 0.8 | 0.6 | 1.1 | 7.1 | 0.8 | 4.8 | 6.3 | 4.2 | 1.3 | very low or no response | – | Specific clones (CD4+ T-cell clones; [3]): 3
RTFVLRVRAQDPPPE (listed as Homo sapiens) [SEQ ID NO. 7] | very low or no response | 20.6 | 1.3 | 1 | 1.2 | 0.4 | 1.1 | 0.8 | 0.9 | 1 | 0.7 | 1 | 1.2 | 4.8 | 4.9 | 2.8 | 5.7 | 2.5 | very low or no response | 5/7 | immunological responses in clinical non-responders (T cells (patient PBMCs)): 1/10
AERLTSRVKALFSVL (listed as Homo sapiens) [SEQ ID NO. 9] | very low or no response | 13.9 | 0.8 | 0.6 | 0.8 | 0.7 | 1.2 | 0.7 | 0.8 | 0.6 | 0.5 | 0.8 | 0.9 | 1.3 | 3.2 | 1 | 5.9 | 1 | very low or no response | 3/7 | patients with CTL responses shown by pentamer analysis [1]: 3; immunological responses in clinical non-responders (T cells (patient PBMCs)): 0/10
PGLLGASVLGLDDIH (listed as Homo sapiens) [SEQ ID NO. 55] | – | – | – | – | – | – | – | – | – | – | – | – | – | – | – | – | – | – | – | – | proliferative T-cell response (detected or not) (T cells (patient PBMCs)): recognized by T cells
SVLNYERARRPGLLG (listed as Homo sapiens) [SEQ ID NO. 2] | – | – | – | – | – | – | – | – | – | – | – | – | – | – | – | – | – | – | – | – | Specific clones (CD4+ T-cell clones; HLA class II allele DR*01, 2 patients, malignant melanoma): T-cell lines; Specific clones (CD4+ T-cell clones; [3]): 3; Specific clones (CD4+ T-cell clones; HLA class II allele DR*08, 2 patients, malignant melanoma and lung cancer): >85
Nc1ccn([C@@H]2O[C@H](CO)[C@@H](O)C2(F)F)c(=O)n1 [gemcitabine] | – | – | – | – | – | – | – | – | – | – | – | – | – | – | – | – | – | – | – | – | adverse effects (pancreas cancer patient; after 5 months): suspended due to adverse effects; Clinical response (pancreas cancer patient; before DC vaccination): disease stabilization
RPALLTSRL (listed as Homo sapiens) [SEQ ID NO. 5] | – | – | – | – | – | – | – | – | – | – | – | – | – | – | – | – | – | – | – | – | peptide-specific CD8+ T lymphocytes detected by pentamer [1]: stable CD8+ T cell population
ALFSVLNYERARRPGLLGASVLGLDDIHRA [SEQ ID NO. 1] | very low or no response | 27.2 | 1 | 1.1 | 0.9 | 1.5 | 44.5 | 2.5 | 1.6 | 5.3 | 0.3 | 1 | 1.9 | 1.8 | 44.5 | 5.7 | 6.9 | 17.1 | very low or no response | 7/7 | patients with CTL responses shown by pentamer analysis [1]: Several; T-cell clones derived from the culture with the peptide that were specific (CD4+ T-cell clones; [22]): 75%; Specific clones (CD4+ T-cell clones; HLA class II allele DR*07, specificity printed as 'Part of 660-689', 1 patient, colon cancer, Schroers et al, 2003): 3; Specific clones (CD4+ T-cell clones; HLA class II allele DR*14, 2 patients, colon cancer, lung cancer): 6 clones; T-cell response (T cells (patient PBMCs); [22]): very strong responses; reactivity in cancer patients tested (T cells (patient PBMCs); cancer patients, mostly vaccinated): reactivity in nearly all the cancer patients tested; T-cell response compared with the vaccine peptide GV1001 (T cells (patient PBMCs); one patient vaccinated with GV1001, certain time points (FIG. 3)): even stronger than to the vaccine peptide itself; proliferative T-cell response (detected or not) (T cells (patient PBMCs)): Proliferative T-cell responses were detected; immunological responses in clinical non-responders (T cells (patient PBMCs)): 1/10; CD8+ T cell population after stimulation with peptide-loaded versus non-peptide loaded targets ([2]; pancreas cancer patient (data not shown)): no difference in the CD8+ T cell population; CD4+ T cells secreting IFN-γ, IL-4 and TNF-α ([2]; pancreas cancer patient, one round of in vitro stimulation, autologous EBV-transformed B-cells loaded with same peptide): small population of multifunctional CD4+ T cells
